# Reference: article PMC11790914, “Chemogenomics for steroid hormone receptors (NR3)” (Communications Chemistry, 2025)
# Values joined by “and” are separate entries in the source; they are usually repeats but may differ in a detail not shown here. Equal entries are not always repeated.
# How the values were obtained:
# [1] = test system: NF-κB activity in HEK293 NF-κB reporter cells; assay: NF-kB activity assay (GFP reporter, ionomycin/PMA); type: cell-based; conditions: n=3
# How it was run: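 HEK293 NF-κB GFP reporter cells given compound in 0.1% DMSO for 4 h, then stimulated with ionomycin 100 ng/mL plus PMA 10 ng/mL. Imaged every 90 min over 24 h; GFP-positive cell count normalized to confluence, three independent biological replicates.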
# [2] = test system: ATF6 activity in Hela ATF6 reporter cells; assay: Endoplasmic reticulum stress assay (ATF6 Renilla luciferase reporter, tunicamycin); type: cell-based; conditions: single replicates n=1 to n=5
# How it was run: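 HeLa ATF6 Renilla reporter cells were pretreated 4 h with compounds in 0.1% DMSO, then stimulated with tunicamycin (100 ng/mL) for 18 h. Renilla luminescence (DualGlo) was normalized to 0.1% DMSO control; five independent experiments.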
# FGFR3 = molecular target: T1, FGFR3 (Homo sapiens, UniProt P22607); assay: Liability panel screening by DSF: FGFR3; type: binding; conditions: DSF, 20 µM, n=2
# T1 construct: made in house
# How it was run: (§1)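 ∆Tm in K was taken from Boltzmann-fitted unfolding inflection points, run in duplicate with a temperature ramp of 3 °C per minute up to 85 °C. Each recombinant protein (2 µM) was in HEPES 10 mM pH 7.5 and NaCl 500 mM, with SYPRO Orange dye at 1:1000.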
# NR3C2 (MR) = conditions: (lit.); ref Supplementary Table 1; read-out: Potency [nM] EC50, NR3C2 (MR); cited from earlier work
# CSNK1D = molecular target: T2, CSNK1D (Homo sapiens, UniProt P48730); assay: Liability panel screening by DSF: CSNK1D; type: binding; conditions: DSF, 20 µM, n=2
# T2 construct: made in house
# How it was run: as §1
# AURKA = molecular target: T3, AURKA (Homo sapiens, UniProt O14965); assay: Liability panel screening by DSF: AURKA; type: binding; conditions: DSF, 20 µM, n=2
# T3 construct: made in house
# T3 sequence (O14965 1-403): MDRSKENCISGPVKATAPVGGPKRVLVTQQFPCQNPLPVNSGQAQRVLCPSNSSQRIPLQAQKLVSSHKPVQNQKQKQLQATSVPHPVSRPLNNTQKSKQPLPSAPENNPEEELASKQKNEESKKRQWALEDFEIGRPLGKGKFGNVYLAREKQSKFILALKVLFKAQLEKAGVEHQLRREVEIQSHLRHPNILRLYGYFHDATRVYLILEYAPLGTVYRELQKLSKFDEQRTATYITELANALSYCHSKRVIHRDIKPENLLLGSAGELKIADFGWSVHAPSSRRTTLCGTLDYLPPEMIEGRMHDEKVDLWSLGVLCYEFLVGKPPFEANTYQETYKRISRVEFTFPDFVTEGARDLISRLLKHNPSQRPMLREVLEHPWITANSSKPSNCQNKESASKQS
# How it was run: as §1
# HEK293T cells [3] = assay: Cytotoxicity: necrosis induction (red fluorescent dye for permeable plasma membranes); type: cell-based; conditions: 24 h, necrotic cell count normalized to 0.1% DMSO, single replicates;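 further: compounds applied in DMEM high glucose with 0.1% FCS and 0.1% DMSO, necrotic HEK293T cells counted by red staining of cells whose plasma membranes had become permeable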
# Method: Cells were incubated with the test compounds at the indicated concentrations solubilized with 0.1% DMSO for 24 h. […] Necrotic cells were detected with a red fluorescent dye that labels cells with permeable plasma membranes after 24 h treatment and the necrotic cell count was normalized to 0.1% DMSO treated cells (n = 4). e NR family selectivity profiling of NR3 CG compound candidates in uniform Gal4-hybrid reporter gene assays for selected NR representing the NR1, NR2, NR4 and NR5 families.
# HEK293T cells (German Collection of Microorganisms and Cell Culture GmbH, DSMZ; #ACC305) were cultured in DMEM high glucose, supplemented with 10% fetal calf serum (FCS), sodium pyruvate (1 mM), penicillin (100 µ/mL) and streptomycin (100 µg/mL) at 37 °C and 5% (v/v) CO2, and seeded in pre-coated (10 µg/mL collagen G solution (Merck KgaA; #L7213) for 30 min at 37 °C) 96-well plates (2 × 10^5 cells per well). After 24 h, the cells were treated with the respective NR3 CG compound candidate at the recommended concentration, bexarotene (100 µM) or doxorubicin (30 µM) as positive controls in DMEM high glucose supplemented with 0.1% FCS, penicillin (100 µ/mL), streptomycin (100 µg/mL) and 0.1% DMSO, or 0.1% DMSO alone as an untreated control. Each sample was prepared in at least four biologically independent replicates. […] Before drug administration, after the first medium exchange, 24 h after drug administration, and after fluorescence imaging cell confluence was assessed using the Tecan Spark Cyto, to account for changes in cell confluence due to drug administration and cell handling. Compound effects on cell confluence, apoptosis, metabolic activity and necrosis were normalized to the vehicle control of each biological replicate individually.
# TRIM24 = molecular target: T4, TRIM24 (Homo sapiens, UniProt O15164); assay: Liability panel screening by DSF: TRIM24; type: binding; conditions: DSF, 20 µM, n=2
# T4 construct: This panel comprised ten highly ligandable kinases and bromodomains; made in house
# T4 sequence (O15164 899-1004 limits assumed): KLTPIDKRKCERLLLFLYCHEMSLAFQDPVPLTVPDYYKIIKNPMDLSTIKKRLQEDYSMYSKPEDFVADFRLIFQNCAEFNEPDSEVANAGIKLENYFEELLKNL
# How it was run: as §1
# MAPK1 = molecular target: T5, MAPK1 (Homo sapiens, UniProt P28482); assay: Liability panel screening by DSF: MAPK1; type: binding; conditions: DSF, 20 µM, n=2
# T5 construct: made in house
# How it was run: as §1
# HEK293T cells [4] = assay: Cytotoxicity: growth-rate (change in confluence over 24 h); conditions: normalized to 0.1% DMSO control, single replicates (n=1...)
# BRD4 = molecular target: T6, BRD4 (Homo sapiens, UniProt O60885); assay: Liability panel screening by DSF: BRD4; type: binding; conditions: DSF, 20 µM, n=2
# T6 construct: This panel comprised ten highly ligandable kinases and bromodomains; made in house
# How it was run: as §1
# ABL1 = molecular target: T7, ABL1 (Homo sapiens, UniProt P00519); assay: Liability panel screening by DSF: ABL1; type: binding; conditions: DSF, 20 µM, n=2
# T7 construct: made in house
# How it was run: as §1
# CDK2 = molecular target: T8, CDK2 (Homo sapiens, UniProt P24941); assay: Liability panel screening by DSF: CDK2; type: binding; conditions: DSF, 20 µM, n=2
# T8 construct: made in house
# How it was run: as §1
# GSK3B = molecular target: T9, GSK3B (Homo sapiens, UniProt P49841); assay: Liability panel screening by DSF: GSK3B; type: binding; conditions: DSF, 20 µM, n=2
# T9 construct: made in house
# HEK293T cells [5] = assay: Cytotoxicity: metabolic activity (WST-8 / CCK-8 assay); conditions: HEK293T, 24 h, WST-8, normalized to 0.1% DMSO, single replicates
# HEK293T cells [6] = assay: Cytotoxicity: apoptosis induction (caspase-3/7 DEVD fluorogenic DNA dye); conditions: HEK293T, 24 h, apoptotic cell count normalized to 0.1% DMSO, single replicates
# BRPF1 = molecular target: T10, BRPF1 (Homo sapiens, UniProt P55201); assay: Liability panel screening by DSF: BRPF1; type: binding
# T10 construct: This panel comprised ten highly ligandable kinases and bromodomains; made in house
# T10 sequence (P55201 628-732 limits assumed): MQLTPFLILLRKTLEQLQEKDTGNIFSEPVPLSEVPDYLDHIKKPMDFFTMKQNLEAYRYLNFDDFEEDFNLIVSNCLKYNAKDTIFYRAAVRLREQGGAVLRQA
# How it was run: as §1
# NR3C3 (PR) = conditions: cited from earlier work
# [7] = known off-target outside the NR family at the recommended concentration; ref Supplementary Table 1 (superscript references); cited from earlier work
# NR3C4 (AR) = conditions: ref Supplementary Table 1, cited from earlier work
# NR3C1 (GR) = conditions: ref Supplementary Table 1, cited from earlier work
# T1 sequence (P22607 23-806, species assumed): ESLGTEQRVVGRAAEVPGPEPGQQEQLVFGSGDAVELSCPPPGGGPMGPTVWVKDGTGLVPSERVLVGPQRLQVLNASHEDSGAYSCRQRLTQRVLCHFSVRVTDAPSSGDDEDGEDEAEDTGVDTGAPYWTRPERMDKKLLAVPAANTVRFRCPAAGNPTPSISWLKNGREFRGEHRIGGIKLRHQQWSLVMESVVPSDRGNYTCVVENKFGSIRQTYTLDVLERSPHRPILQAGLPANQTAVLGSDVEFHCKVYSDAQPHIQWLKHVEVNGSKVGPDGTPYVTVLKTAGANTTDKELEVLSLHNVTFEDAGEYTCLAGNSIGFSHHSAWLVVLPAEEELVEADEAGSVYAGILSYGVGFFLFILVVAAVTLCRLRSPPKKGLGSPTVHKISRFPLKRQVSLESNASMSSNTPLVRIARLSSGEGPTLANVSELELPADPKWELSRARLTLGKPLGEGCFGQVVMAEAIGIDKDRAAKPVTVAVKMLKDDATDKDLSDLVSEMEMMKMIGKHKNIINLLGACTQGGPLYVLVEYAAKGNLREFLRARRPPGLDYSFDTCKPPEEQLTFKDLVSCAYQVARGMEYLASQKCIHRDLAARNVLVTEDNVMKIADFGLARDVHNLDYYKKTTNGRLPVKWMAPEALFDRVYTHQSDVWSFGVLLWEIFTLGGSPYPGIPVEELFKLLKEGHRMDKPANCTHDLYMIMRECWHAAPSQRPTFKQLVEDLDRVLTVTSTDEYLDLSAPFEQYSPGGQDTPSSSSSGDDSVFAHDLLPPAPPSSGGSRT
# T7 sequence (P00519 whole entry, species assumed): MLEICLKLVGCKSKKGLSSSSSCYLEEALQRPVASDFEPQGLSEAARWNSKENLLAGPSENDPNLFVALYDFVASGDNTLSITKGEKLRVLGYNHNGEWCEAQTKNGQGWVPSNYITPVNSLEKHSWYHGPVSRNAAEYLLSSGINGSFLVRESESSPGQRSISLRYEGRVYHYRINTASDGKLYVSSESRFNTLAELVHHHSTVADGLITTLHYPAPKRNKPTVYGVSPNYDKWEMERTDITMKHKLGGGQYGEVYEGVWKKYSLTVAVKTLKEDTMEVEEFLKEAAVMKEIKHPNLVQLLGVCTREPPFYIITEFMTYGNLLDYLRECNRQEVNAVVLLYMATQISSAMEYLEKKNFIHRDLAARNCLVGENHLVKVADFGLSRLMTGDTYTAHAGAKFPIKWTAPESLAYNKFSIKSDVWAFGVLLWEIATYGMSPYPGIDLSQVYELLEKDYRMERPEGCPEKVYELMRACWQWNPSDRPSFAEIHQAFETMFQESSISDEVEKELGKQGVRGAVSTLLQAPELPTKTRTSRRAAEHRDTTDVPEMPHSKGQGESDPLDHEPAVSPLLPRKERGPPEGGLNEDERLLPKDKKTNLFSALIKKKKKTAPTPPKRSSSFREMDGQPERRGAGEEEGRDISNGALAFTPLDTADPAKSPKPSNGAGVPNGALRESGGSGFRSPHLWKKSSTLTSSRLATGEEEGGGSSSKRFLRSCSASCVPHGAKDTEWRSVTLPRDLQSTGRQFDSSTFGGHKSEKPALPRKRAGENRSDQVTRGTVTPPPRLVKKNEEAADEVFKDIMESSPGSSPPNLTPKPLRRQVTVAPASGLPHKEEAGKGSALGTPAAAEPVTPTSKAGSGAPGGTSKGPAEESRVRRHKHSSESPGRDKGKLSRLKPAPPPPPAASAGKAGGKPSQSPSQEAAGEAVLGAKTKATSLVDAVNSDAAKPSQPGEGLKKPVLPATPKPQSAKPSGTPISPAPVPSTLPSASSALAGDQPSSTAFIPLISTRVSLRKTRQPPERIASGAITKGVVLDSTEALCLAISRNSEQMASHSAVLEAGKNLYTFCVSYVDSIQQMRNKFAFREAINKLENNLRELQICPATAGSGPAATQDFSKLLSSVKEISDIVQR
# T2 sequence (P48730 whole entry, species assumed): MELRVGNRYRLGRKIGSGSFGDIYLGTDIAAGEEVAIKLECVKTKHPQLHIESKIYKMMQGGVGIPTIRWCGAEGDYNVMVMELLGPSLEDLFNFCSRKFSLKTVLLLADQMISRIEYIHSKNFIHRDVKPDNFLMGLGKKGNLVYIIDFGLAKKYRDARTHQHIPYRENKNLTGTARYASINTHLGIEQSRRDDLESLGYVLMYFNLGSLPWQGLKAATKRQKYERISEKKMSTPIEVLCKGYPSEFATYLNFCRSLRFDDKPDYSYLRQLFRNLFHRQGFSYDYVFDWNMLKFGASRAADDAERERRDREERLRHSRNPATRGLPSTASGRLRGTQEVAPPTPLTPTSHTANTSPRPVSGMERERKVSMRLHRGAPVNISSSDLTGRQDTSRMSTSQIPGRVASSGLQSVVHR
# T5 sequence (P28482 whole entry, species assumed): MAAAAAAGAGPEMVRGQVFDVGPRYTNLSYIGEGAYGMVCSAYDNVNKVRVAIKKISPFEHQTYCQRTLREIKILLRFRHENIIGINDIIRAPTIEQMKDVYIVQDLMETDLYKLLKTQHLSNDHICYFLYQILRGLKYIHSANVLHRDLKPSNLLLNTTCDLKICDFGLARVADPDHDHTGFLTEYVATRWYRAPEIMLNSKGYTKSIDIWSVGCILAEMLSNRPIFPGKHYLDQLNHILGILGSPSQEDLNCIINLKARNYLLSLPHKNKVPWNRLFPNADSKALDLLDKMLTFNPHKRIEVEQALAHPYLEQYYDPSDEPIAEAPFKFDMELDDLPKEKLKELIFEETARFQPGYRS
# T9 sequence (P49841 whole entry, species assumed): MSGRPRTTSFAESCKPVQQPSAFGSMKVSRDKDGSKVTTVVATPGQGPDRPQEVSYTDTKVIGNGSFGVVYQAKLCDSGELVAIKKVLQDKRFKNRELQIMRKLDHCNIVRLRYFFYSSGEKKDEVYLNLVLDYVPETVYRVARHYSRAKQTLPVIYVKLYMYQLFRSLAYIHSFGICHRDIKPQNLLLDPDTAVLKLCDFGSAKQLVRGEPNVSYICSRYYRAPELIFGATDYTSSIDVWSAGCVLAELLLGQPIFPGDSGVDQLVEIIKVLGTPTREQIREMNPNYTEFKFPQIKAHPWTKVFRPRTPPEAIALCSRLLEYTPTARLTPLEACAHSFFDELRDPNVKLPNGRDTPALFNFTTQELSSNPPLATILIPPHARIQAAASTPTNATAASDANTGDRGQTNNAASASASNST
compound,measurement,setting,value
C[C@]12CCC(=O)C=C1CC[C@@H]1[C@@H]2[C@@H](O)C[C@]2(C=O)[C@@H](C(=O)CO)CC[C@@H]12 [Aldosterone],Mean NFκB response,"[1]; 1 µM, 1,5 h",2799.98 GFP+-cells/confluence ∙ 1000
same,Mean NFκB response,"[1]; 1 µM, 4,5 h",3728.04 GFP+-cells/confluence ∙ 1000
same,Mean NFκB response,"[1]; 1 µM, 7,5 h",7006.53 GFP+-cells/confluence ∙ 1000
same,Mean NFκB response,"[1]; 1 µM, 10,5 h",14006.47 GFP+-cells/confluence ∙ 1000
same,Mean NFκB response,"[1]; 1 µM, 13,5 h",19614.51 GFP+-cells/confluence ∙ 1000
same,Mean NFκB response,"[1]; 1 µM, 16,6 h",24279.62 GFP+-cells/confluence ∙ 1000
same,Mean NFκB response,"[1]; 1 µM, 19,5 h",27366.03 GFP+-cells/confluence ∙ 1000
same,Mean NFκB response,"[1]; 1 µM, 22,5 h",29896.67 GFP+-cells/confluence ∙ 1000
same,Mean NFκB response,"[1]; 1 µM, 3 h",3180.38 GFP+-cells/confluence ∙ 1000
same,Mean NFκB response,"[1]; 1 µM, 6 h",4651.42 GFP+-cells/confluence ∙ 1000
same,Mean NFκB response,"[1]; 1 µM, 9 h",10914.09 GFP+-cells/confluence ∙ 1000
same,Mean NFκB response,"[1]; 1 µM, 12 h",17161.43 GFP+-cells/confluence ∙ 1000
same,Mean NFκB response,"[1]; 1 µM, 15 h",22438.14 GFP+-cells/confluence ∙ 1000
same,Mean NFκB response,"[1]; 1 µM, 18 h",25981.67 GFP+-cells/confluence ∙ 1000
same,Mean NFκB response,"[1]; 1 µM, 21 h",28773.18 GFP+-cells/confluence ∙ 1000
same,Mean NFκB response,"[1]; 1 µM, 24 h",30941.17 GFP+-cells/confluence ∙ 1000
same,activity at 1 µM,"[2]; Homo sapiens, HeLa, 1 µM, read-out: ER stress [rel. ATF6 activity]",80%
same,ΔTm at 20 µM,FGFR3; read-out: Mean ΔTM FGFR3,-0.16 °C
same,EC50,NR3C2 (MR),0.34 ± 0.04 nM
same,ΔTm at 20 µM,CSNK1D; read-out: Mean ΔTM CSNK1D,-2.48e-05 °C
same,ΔTm at 20 µM,AURKA; read-out: Mean ΔTM AURKA,0.1 °C
same,Necrosis induction [NI],HEK293T cells [3]; 1 µM,0.75 and 0.67 and 0.68 and 0.72
same,ΔTm at 20 µM,TRIM24; read-out: Mean ΔTM TRIM24,-0.91 °C
same,ΔTm at 20 µM,MAPK1; read-out: Mean ΔTM MAPK1,0.17 °C
same,Growth rate [GR],HEK293T cells [4]; 1 µM,0.87 and 0.57 and 0.92 and 1.28 and 0.95 and 0.82 and 0.93 and 0.54 and 0.81 and -0.31
same,ΔTm at 20 µM,BRD4; read-out: Mean ΔTM BRD4,0.17 °C
same,ΔTm at 20 µM,ABL1; read-out: Mean ΔTM ABL1,-0.26 °C
same,ΔTm at 20 µM,CDK2; read-out: Mean ΔTM CDK2,-0.06 °C
same,ΔTm at 20 µM,GSK3B; read-out: Mean ΔTM GSK3B,-0.23 °C
same,Metabolic activity [MA],HEK293T cells [5]; 1 µM,1.07 (2×) and 1.02 and 0.98 and 1.08 and 0.99 (2×) and 0.93
same,Apoptosis induction [AI],HEK293T cells [6]; 1 µM,0.40 and 0.56 and 0.73 and 0.75 and 0.46 and 0.86
same,ΔTm at 20 µM,BRPF1; read-out: Mean ΔTM BRPF1,-1.02 °C
Medroxyprogesterone,Mean NFκB response,"[1]; 0.3 µM, 1,5 h",2817.45 GFP+-cells/confluence ∙ 1000
same,Mean NFκB response,"[1]; 0.3 µM, 4,5 h",3349.18 GFP+-cells/confluence ∙ 1000
same,Mean NFκB response,"[1]; 0.3 µM, 7,5 h",6986.39 GFP+-cells/confluence ∙ 1000
same,Mean NFκB response,"[1]; 0.3 µM, 10,5 h",17788.45 GFP+-cells/confluence ∙ 1000
same,Mean NFκB response,"[1]; 0.3 µM, 13,5 h",26308.75 GFP+-cells/confluence ∙ 1000
same,Mean NFκB response,"[1]; 0.3 µM, 16,6 h",32691.58 GFP+-cells/confluence ∙ 1000
same,Mean NFκB response,"[1]; 0.3 µM, 19,5 h",37046.67 GFP+-cells/confluence ∙ 1000
same,Mean NFκB response,"[1]; 0.3 µM, 22,5 h",41020.00 GFP+-cells/confluence ∙ 1000
same,Mean NFκB response,"[1]; 0.3 µM, 3 h",2918.53 GFP+-cells/confluence ∙ 1000
same,Mean NFκB response,"[1]; 0.3 µM, 6 h",4035.46 GFP+-cells/confluence ∙ 1000
same,Mean NFκB response,"[1]; 0.3 µM, 9 h",12242.08 GFP+-cells/confluence ∙ 1000
same,Mean NFκB response,"[1]; 0.3 µM, 12 h",21999.86 GFP+-cells/confluence ∙ 1000
same,Mean NFκB response,"[1]; 0.3 µM, 15 h",29772.36 GFP+-cells/confluence ∙ 1000
same,Mean NFκB response,"[1]; 0.3 µM, 18 h",34990.00 GFP+-cells/confluence ∙ 1000
same,Mean NFκB response,"[1]; 0.3 µM, 21 h",39166.67 GFP+-cells/confluence ∙ 1000
same,Mean NFκB response,"[1]; 0.3 µM, 24 h",41696.67 GFP+-cells/confluence ∙ 1000
same,ER stress [rel. ATF6 activity],[2]; 0.3 µM,0.98 and 0.97 and 1.05 and 0.94 and 0.96
same,Mean ΔTM FGFR3,FGFR3,-0.32 K
same,Mean ΔTM CSNK1D,CSNK1D,-0.11 K
same,Mean ΔTM AURKA,AURKA,0.0165 K
same,Necrosis induction [NI],HEK293T cells [3]; 0.3 µM,0.91 (2×) and 1.04 and 0.81
same,EC50,"NR3C3 (PR); (lit.), ref Supplementary Table 1, read-out: Potency [nM] EC50, NR3C3 (PR)",0.15 ± 0.05 nM
same,"rel. activity from literature, NR3C3 (PR): % of PGN",NR3C3 (PR); of PGN (progesterone),80 ± 7%
same,Other off-target at recom. conc.,[7],17β-HSD2 and 17β-HSD3 and 17β-HSD1
same,"rel. activity from literature, NR3C4 (AR): % of DHT",NR3C4 (AR); of DHT (dihydrotestosterone),159 ± 10%
same,IC50,"NR3C4 (AR); read-out: Potency [nM] IC50, NR3C4 (AR), (lit.)",6 ± 1 nM
same,Mean ΔTM TRIM24,TRIM24,-0.75 K
same,Mean ΔTM MAPK1,MAPK1,0.18 K
same,Growth rate [GR],HEK293T cells [4]; 0.3 µM,0.94 and 1.01 and 1.09 and 1.40 and 1.04 (2×) and 0.87 and 1.11 and 0.76 and 1.34
same,Mean ΔTM BRD4,BRD4,-1.17 K
same,EC50,"NR3C1 (GR); (lit.), read-out: Potency [nM] EC50, NR3C1 (GR)",10 ± 1 nM
same,"rel. activity from literature, NR3C1 (GR): % of dexamethasone (DXM)",NR3C1 (GR); of dexamet./DXM,157 ± 22%
same,Mean ΔTM ABL1,ABL1,-0.24 K
same,Mean ΔTM CDK2,CDK2,-0.39 K
same,Mean ΔTM GSK3B,GSK3B,-0.99 K
same,Metabolic activity [MA],HEK293T cells [5]; 0.3 µM,0.94 and 1.01 and 0.93 and 1.08
same,Apoptosis induction [AI],HEK293T cells [6]; 0.3 µM,0.76 and 0.77 and 1.07 and 0.74 (2×) and 0.88
same,Mean ΔTM BRPF1,"BRPF1; DSF, 20 µM, n=2",0.25 K
